What is called IC50 is the concentration that gives 50% inhibition.

Assay [1] addresses T1, COX-2 (Homo sapiens, UniProt P35354).
T1 sequence (P35354 18-604): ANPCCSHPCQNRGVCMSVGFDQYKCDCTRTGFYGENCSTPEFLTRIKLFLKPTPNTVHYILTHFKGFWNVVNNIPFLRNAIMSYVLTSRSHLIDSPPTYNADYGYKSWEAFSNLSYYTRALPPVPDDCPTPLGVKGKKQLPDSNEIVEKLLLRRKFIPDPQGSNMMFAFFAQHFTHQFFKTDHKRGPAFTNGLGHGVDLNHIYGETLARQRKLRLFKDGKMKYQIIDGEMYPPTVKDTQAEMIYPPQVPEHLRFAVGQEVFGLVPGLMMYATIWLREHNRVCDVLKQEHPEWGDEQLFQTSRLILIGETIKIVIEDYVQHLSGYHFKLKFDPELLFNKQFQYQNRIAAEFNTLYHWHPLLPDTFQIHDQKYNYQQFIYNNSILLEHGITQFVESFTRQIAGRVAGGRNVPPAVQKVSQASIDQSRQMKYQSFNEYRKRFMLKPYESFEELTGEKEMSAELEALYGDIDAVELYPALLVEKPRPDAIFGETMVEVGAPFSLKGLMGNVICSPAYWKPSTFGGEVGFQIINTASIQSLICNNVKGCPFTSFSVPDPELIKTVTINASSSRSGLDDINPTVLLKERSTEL
The experiment in a line: COX-2 whole-blood enzymatic immunoassay. In kind it is cell-based.

Assay [2] has as its target T2, COX-1 (Macaca mulatta, UniProt F6S984).
T2 sequence (F6S984 25-599): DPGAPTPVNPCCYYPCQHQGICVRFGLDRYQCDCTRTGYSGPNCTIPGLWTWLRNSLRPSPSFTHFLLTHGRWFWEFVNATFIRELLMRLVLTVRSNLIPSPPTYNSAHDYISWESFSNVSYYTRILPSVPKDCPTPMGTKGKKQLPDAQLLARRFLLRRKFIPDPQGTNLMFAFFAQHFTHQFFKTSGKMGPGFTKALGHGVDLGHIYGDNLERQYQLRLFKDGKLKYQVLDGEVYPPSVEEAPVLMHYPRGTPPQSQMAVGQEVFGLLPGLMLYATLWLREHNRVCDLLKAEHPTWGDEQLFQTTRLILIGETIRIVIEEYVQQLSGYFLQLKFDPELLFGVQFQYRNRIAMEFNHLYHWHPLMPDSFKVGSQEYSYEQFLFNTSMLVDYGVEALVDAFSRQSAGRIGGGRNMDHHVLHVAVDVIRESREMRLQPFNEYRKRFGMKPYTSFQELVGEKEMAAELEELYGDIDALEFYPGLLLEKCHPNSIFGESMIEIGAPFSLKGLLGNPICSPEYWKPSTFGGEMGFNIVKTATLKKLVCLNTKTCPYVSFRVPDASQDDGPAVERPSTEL
Kind of assay: COX-1 whole-blood enzymatic immunoassay. The class given is cell-based. As to conditions: read-out: IC50 COX-1 Monkey, mean ± SD (n = 3).

Assay [3] concerns the target COX-1 (Homo sapiens, UniProt P23219). The experiment in a line: COX-1 whole-blood enzymatic immunoassay. In kind it is cell-based.
The target in assay [4] is T3, COX-2 (Macaca mulatta, UniProt F7BWZ9).
T3 sequence (F7BWZ9 18-604): T1 sequence (P35354 18-604) with H7Y, F49L, A101V, L150F, S163T, N191K, A208D, R211H, T363N, G570R
Kind of assay: COX-2 whole-blood enzymatic immunoassay. The class given is cell-based. As to conditions: read-out: IC50 COX-2 Monkey, mean ± SD (n = 3).

The target of assay [5] is T4, COX-1 (Rattus norvegicus, UniProt Q63921).
T4 sequence (Q63921 27-602): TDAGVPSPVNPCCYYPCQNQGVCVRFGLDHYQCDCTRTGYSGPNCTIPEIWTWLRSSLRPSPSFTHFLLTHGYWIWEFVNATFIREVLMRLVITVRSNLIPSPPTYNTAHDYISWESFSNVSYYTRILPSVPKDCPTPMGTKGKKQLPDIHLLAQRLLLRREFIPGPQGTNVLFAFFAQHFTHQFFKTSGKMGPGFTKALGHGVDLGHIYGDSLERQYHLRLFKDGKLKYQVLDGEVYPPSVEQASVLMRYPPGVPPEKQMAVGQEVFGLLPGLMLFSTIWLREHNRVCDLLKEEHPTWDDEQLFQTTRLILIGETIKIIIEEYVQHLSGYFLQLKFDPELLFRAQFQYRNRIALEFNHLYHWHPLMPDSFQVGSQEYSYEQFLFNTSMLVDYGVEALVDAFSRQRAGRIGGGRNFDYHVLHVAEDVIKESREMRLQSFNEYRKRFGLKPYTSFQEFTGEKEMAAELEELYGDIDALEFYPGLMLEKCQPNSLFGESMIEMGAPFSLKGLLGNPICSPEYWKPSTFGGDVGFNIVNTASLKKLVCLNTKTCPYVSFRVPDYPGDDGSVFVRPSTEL
The experiment in a line: COX-1 whole-blood enzymatic immunoassay. The class given is cell-based.

Assay [6] deals with human COX-1. As to conditions: read-out: IC50 for human COX-1 (reported); human whole blood; cited from earlier work.
Setting [7] is: read-out: IC50 COX-1 Human, human whole blood, mean ± SD (n = 3).

Changes are numbered by the printed parent chain. Where two headings read alike, the source gives them in different places.

Sequence of COX-1 (Homo sapiens, UniProt P23219) (P23219 24-599): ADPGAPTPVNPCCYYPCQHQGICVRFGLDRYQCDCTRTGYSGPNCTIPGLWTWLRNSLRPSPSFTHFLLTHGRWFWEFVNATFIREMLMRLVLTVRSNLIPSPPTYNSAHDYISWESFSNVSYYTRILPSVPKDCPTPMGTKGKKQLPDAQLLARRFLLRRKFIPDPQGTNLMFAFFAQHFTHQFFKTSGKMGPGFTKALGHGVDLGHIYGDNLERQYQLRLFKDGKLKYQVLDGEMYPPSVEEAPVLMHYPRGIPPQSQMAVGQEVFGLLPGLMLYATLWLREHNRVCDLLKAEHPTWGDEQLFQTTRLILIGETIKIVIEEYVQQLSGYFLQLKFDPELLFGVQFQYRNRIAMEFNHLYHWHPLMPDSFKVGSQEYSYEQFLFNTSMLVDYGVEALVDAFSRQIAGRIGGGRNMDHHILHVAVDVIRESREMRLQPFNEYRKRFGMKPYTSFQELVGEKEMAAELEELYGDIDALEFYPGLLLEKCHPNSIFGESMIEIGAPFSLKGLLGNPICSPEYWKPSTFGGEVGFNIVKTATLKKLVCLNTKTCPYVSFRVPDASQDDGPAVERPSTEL

As to `COc1ccc(-n2nc(OCF)nc2-c2ccccc2)cc1` [Inhibitor 32, 3-(Fluoromethoxy)-1-(4-methoxyphenyl)-5-phenyl-1H-1,2,4-triazole], the values for the IC50 in assay [1], in assay [2] and in assay [3] were 100 ± 25 nM, 100 nM and 1.7 ± 0.6 nM, respectively.
Regarding `COc1ccc(-n2nc(C(F)(F)F)nc2-c2ccc(F)nc2)cc1` [Inhibitor 24, 2-Fluoro-5-(1-(4-methoxyphenyl)-3-(trifluoromethyl)-1H-1,2,4-triazol-5-yl)pyridine], the IC50 is greater than 1000 nM in assay [1], 10 ± 3 nM in assay [2] and 2 ± 0.1 nM in assay [3].
Take `COc1ccc(-c2nc([S+]([O-])CF)nn2-c2ccc(OC)cc2)cc1` (stereo not drawn) [Inhibitor 27, 3-(Fluoromethylsulfinyl)-1,5-bis(4-methoxyphenyl)-1H-1,2,4-triazole]: the IC50 was greater than 1000 nM in assay [1], 5 ± 2 nM in assay [2], 3 ± 1.7 nM in assay [3] and 545 ± 102 nM in assay [4].
Consider `COc1ccc(-c2nc(SCF)nn2-c2ccc(OC)cc2)cc1` [Inhibitor 26, 3-(Fluoromethylthio)-1,5-bis(4-methoxyphenyl)-1H-1,2,4-triazole], for which the IC50 in assay [1] was greater than 1000 nM; in assay [2], 6.4 ± 0.8 nM; in assay [3], 5 ± 3.9 nM.
For the compound `COc1ccc(-c2nc(S(=O)(=O)CF)nn2-c2ccc(OC)cc2)cc1` [Inhibitor 28, 3-(Fluoromethylsulfonyl)-1,5-bis(4-methoxyphenyl)-1H-1,2,4-triazole], the IC50 in assay [1] is greater than 1000 nM; in assay [2], 25 ± 3 nM; in assay [3], 3 ± 1.2 nM.
In the case of `COc1ccc(-c2nc(OCC(F)(F)F)nn2-c2ccc(OC)cc2)cc1` [Inhibitor 20, 1,5-Bis(4-methoxyphenyl)-3-(2,2,2-trifluoroethoxy)-1H-1,2,4-triazole], the IC50 in assay [5] was 15 nM; in assay [2], 1 ± 0.3 nM; in assay [4] it was greater than 1000 nM.
Regarding `C[C@H](C(=O)O)c1cccc(C(=O)c2ccccc2)c1` [Inhibitor 4, (S)-ketoprofen, reference compound], the IC50 came to 40 ± 17 nM in assay [2] and 400 ± 113 nM in assay [4].
For the compound `COc1ccc(-c2nc(OC)nn2-c2ccc(OC)cc2)cc1` [Inhibitor 5], the IC50 in assay [6] was 4.9 nM; in assay [2] it was 4.6 ± 1.3 nM; in assay [4], greater than 1000 nM.
Regarding `COc1ccc(-n2nc(OC)nc2-c2ccccc2)cc1` [Inhibitor 31, 3-Methoxy-1-(4-methoxyphenyl)-5-phenyl-1H-1,2,4-triazole], the IC50 in assay [1] (read-out: IC50 COX-2 Human, human whole blood, mean ± SD (n = 3)) was greater than 1000 nM; in assay [2], 3 ± 2.5 nM; in assay [3] (setting [7]), 3 ± 0.06 nM.
As to `COc1cc(NCc2cccs2)nc(-c2ccc(S(C)(=O)=O)cc2)n1` [Inhibitor 34, [2-(4-Methanesulfonylphenyl)-6-methoxypyrimidin-4-yl]thiophen-2-ylme-thylamine, reference compound], the figures for the IC50 in assay [2], in assay [3] (setting [7]) and in assay [4] were greater than 1000 nM, greater than 1000 nM and 1 ± 0.5 nM, respectively.

Source of the values: article PMC6744613 (ACS chemical neuroscience, 2018).
